Experimental data: patent US8614201B2 (Janssen Pharmaceutica NV, priority 2009, dated 2013)

Biological target: Human TRPA1 (Homo sapiens, UniProt O75762)
Assay: Assay 1: In vitro cellular testing of TRPA1 modulation (CHO-TREx, Fluo-3 calcium fluorescence, AITC agonist)
Assay type: cell-based
Set-up: expressed in transfected cells; host or cells: CHO-TREx cells (Invitrogen), vector pcDNA4/TO
Details: CHO-TREx cells expressing human TRPA1; Fluo-3 fluorescence (FLIPR/Tetra); agonist 15 μM allyl isothiocyanate (AITC); 30 minute antagonist incubation
Experimental: Assay 1: In Vitro Cellular Testing of TRPA1 Modulation
Human TRPA1 (NCBI accession number NM_007332.1) was cloned into pcDNA4/TO. CHO-TREx cells (Invitrogen, Carlsbad, Calif.) were stably transfected with pcDNA4/TO-TRPA1 using lipofection to generate a clonal cell line that expressed human TRPA1 in a tetracycline-inducible manner. Culture medium used was Ham's F-12 supplemented with 10% fetal bovine serum, 2 mM L-glutamine, 5 μg/ml blasticidin and 200 μg/ml zeocin. Cells were seeded in black-walled clear-bottom 96-well plates at a density of 50,000 cells per well and cultured overnight at 37° C. with 5% CO2 in culture medium supplemented with 1 μg/ml tetracycline. On the day of the experiment, cells were washed 3 times with HEPES buffered saline (in mM: NaCl 137, MgCl2 0.5, KCl 2, dextrose 5, CaCl2 2 and HEPES 10; pH 7.4). Cells were then loaded with calcium-sensitive fluorescent dye by incubation in the presence of 4 μM Fluo-3 AM (TefLabs, Austin, Tex.) at room temperature in the dark for 60 minutes. After incubation with dye, cells were washed in assay buffer and, if appropriate, antagonists were added at this time. Following a further 30 minute incubation, cells were assayed using a Fluorometric Imaging Plate Reader (FLIPR™) or a Tetra (both manufactured by Molecular Devices, CA) to simultaneously monitor Fluo-3 fluorescence in all wells (λexcitation=488 nm, λemission=540 nm). Changes in fluorescence were monitored for 3 minutes after the addition of 15 μM allyl isothiocyanate (AITC) as an agonist. Concentration-dependence of receptor blocking was determined by exposing each well of cells in duplicate rows of a 96-well plate to a serial dilution of test compound. The concentration series usually started at 10 μM with a three-fold serial decrement in concentration. The magnitude of the response to agonist challenge was determined by measuring the fluorescence before and 3 minutes after the addition of the agonist. The degree of blocking was determined by comparing the response to that of negative (no added antagonist) and positive (10 μM ruthenium red) control wells. Data were analyzed using a non-linear regression program (Origin; OriginLab, MA) to fit the concentration-response data to a Hill function. Antagonist potencies were determined as the concentration required to produce 50% reduction in the response as compared to the negative and positive controls.

Chain of Human TRPA1 (O75762 whole entry): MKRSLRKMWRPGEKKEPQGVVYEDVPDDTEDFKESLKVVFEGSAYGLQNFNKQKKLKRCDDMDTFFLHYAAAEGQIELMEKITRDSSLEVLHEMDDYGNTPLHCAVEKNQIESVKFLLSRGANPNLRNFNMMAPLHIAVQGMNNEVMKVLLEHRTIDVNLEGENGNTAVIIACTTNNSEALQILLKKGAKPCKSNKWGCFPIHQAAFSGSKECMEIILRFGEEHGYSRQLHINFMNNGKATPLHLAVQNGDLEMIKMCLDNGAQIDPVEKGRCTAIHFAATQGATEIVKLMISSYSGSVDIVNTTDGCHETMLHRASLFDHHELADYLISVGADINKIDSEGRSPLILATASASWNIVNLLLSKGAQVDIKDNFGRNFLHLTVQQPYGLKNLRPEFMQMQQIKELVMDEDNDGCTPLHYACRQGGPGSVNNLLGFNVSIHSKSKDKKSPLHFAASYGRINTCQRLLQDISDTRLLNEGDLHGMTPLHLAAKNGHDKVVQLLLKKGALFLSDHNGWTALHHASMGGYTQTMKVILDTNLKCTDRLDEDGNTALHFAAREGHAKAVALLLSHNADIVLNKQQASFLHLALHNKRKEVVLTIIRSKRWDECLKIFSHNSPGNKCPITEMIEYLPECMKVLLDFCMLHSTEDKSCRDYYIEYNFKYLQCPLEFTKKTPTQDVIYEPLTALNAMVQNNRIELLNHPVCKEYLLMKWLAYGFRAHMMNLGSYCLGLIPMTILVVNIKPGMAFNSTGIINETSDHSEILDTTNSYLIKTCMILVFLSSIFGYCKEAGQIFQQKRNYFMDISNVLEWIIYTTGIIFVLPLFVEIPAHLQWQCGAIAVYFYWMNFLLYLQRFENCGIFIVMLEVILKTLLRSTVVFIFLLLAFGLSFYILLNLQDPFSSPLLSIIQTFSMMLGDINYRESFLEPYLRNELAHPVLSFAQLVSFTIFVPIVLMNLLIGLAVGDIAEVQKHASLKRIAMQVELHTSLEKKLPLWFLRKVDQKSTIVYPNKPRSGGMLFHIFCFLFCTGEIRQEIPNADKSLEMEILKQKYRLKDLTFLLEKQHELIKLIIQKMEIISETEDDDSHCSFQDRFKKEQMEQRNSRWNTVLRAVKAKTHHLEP

SMILES | IC50 [nM]
CNc1nc(CNC(=O)[C@@H]2CCCN2S(=O)(=O)c2ccc(Cl)s2)cc(-c2ccc(C(F)(F)F)cc2)n1 [Example 28, 1-(5-Chloro-thiophene-2-sulfonyl)-pyrrolidine-2S-carboxylic acid [2-methylamino-6-(4-trifluoromethyl-phenyl)-pyrimidin-4-ylmethyl]-amide] | 81
CN(C)c1nc(CNC(=O)[C@@H]2CCCN2S(=O)(=O)c2ccc(Cl)s2)cc(-c2ccc(C(F)(F)F)cc2)n1 [Example 29, 1-(5-Chloro-thiophene-2-sulfonyl)-pyrrolidine-2S-carboxylic acid [2-dimethylamino-6-(4-trifluoromethyl-phenyl)-pyrimidin-4-ylmethyl]-amide] | 12
C[C@@H]1CCCN1c1nc(CNC(=O)[C@@H]2CCCN2S(=O)(=O)c2ccc(Cl)s2)cc(-c2ccc(C(F)(F)F)cc2)n1 [Example 30, 1-(5-Chloro-thiophene-2-sulfonyl)-pyrrolidine-2(S)-carboxylic acid [2-(2R-methyl-pyrrolidin-1-yl)-6-(4-trifluoromethyl-phenyl)-pyrimidin-4-ylmethyl]-amide] | 13
C[C@H]1CCCN1c1nc(CNC(=O)[C@@H]2CCCN2S(=O)(=O)c2ccc(Cl)s2)cc(-c2ccc(C(F)(F)F)cc2)n1 [Example 31, 1-(5-Chloro-thiophene-2-sulfonyl)-pyrrolidine-2S-carboxylic acid [2-(2S-methyl-pyrrolidin-1-yl)-6-(4-trifluoromethyl-phenyl)-pyrimidin-4-ylmethyl]-amide] | 9
CN(C)[C@@H]1CCN(c2nc(CNC(=O)[C@@H]3CCCN3S(=O)(=O)c3ccc(Cl)s3)cc(-c3ccc(C(F)(F)F)cc3)n2)C1 [Example 32, 1-(5-Chloro-thiophene-2-sulfonyl)-pyrrolidine-2S-carboxylic acid [2-(3R-dimethylamino-pyrrolidin-1-yl)-6-(4-trifluoromethyl-phenyl)-pyrimidin-4-ylmethyl]-amide] | 1020
CN(C)[C@H]1CCN(c2nc(CNC(=O)[C@@H]3CCCN3S(=O)(=O)c3ccc(Cl)s3)cc(-c3ccc(C(F)(F)F)cc3)n2)C1 [Example 33, 1-(5-Chloro-thiophene-2-sulfonyl)-pyrrolidine-2S-carboxylic acid [2-(3S-dimethylamino-pyrrolidin-1-yl)-6-(4-trifluoromethyl-phenyl)-pyrimidin-4-ylmethyl]-amide] | 469
CC(C)(C)OC(=O)N[C@H]1CCN(c2nc(CNC(=O)[C@@H]3CCCN3S(=O)(=O)c3ccc(Cl)s3)cc(-c3ccc(C(F)(F)F)cc3)n2)C1 [Example 34, {1-[4-({[1-(5-Chloro-thiophene-2-sulfonyl)-pyrrolidine-2S-carbonyl]-amino}-methyl)-6-(4-trifluoromethyl-phenyl)-pyrimidin-2-yl]-pyrrolidin-3S-yl}-carbamic acid tert-butyl ester] | 32
CC(C)(C)OC(=O)N[C@@H]1CCN(c2nc(CNC(=O)[C@@H]3CCCN3S(=O)(=O)c3ccc(Cl)s3)cc(-c3ccc(C(F)(F)F)cc3)n2)C1 [Example 35, {1-[4-({[1-(5-Chloro-thiophene-2-sulfonyl)-pyrrolidine-2S-carbonyl]-amino}-methyl)-6-(4-trifluoromethyl-phenyl)-pyrimidin-2-yl]-pyrrolidin-3R-yl}-carbamic acid tert-butyl ester] | 83
C[C@H](Nc1nc(CNC(=O)[C@@H]2CCCN2S(=O)(=O)c2ccc(Cl)s2)cc(-c2ccc(C(F)(F)F)cc2)n1)c1ccccn1 [Example 36, 1-(5-Chloro-thiophene-2-sulfonyl)-pyrrolidine-2S-carboxylic acid [2-(1-pyridin-2-yl-ethylamino)-6-(4-trifluoromethyl-phenyl)-pyrimidin-4S-ylmethyl]-amide] | 39
C[C@@H](Nc1nc(CNC(=O)[C@@H]2CCCN2S(=O)(=O)c2ccc(Cl)s2)cc(-c2ccc(C(F)(F)F)cc2)n1)c1ccccn1 [Example 37, 1-(5-Chloro-thiophene-2-sulfonyl)-pyrrolidine-2S-carboxylic acid [2-(1-pyridin-2-yl-ethylamino)-6-(4-trifluoromethyl-phenyl)-pyrimidin-4R-ylmethyl]-amide] | 7

The next lines start with the values.

IC50 [nM] | SMILES
1850 | CN(C)CCN(C)c1nc(CNC(=O)[C@@H]2CCCN2S(=O)(=O)c2ccc(F)cc2)cc(-c2ccc(C(F)(F)F)cc2)n1 [Example 18, 1-(4-Fluoro-benzenesulfonyl)-pyrrolidine-2S-carboxylic acid [2-[(2-dimethylamino-ethyl)-methyl-amino]-6-(4-trifluoromethyl-phenyl)-pyrimidin-4-ylmethyl]-amide]
16 | O=C(NCc1cc(-c2ccc(C(F)(F)F)cc2)nc(N2CCN(Cc3cccnc3)CC2)n1)[C@@H]1CCCN1S(=O)(=O)c1ccc(F)cc1 [Example 19, 1-(4-Fluoro-benzenesulfonyl)-pyrrolidine-2S-carboxylic acid [2-(4-pyridin-3-ylmethyl-piperazin-1-yl)-6-(4-trifluoromethyl-phenyl)-pyrimidin-4-ylmethyl]-amide]
2050 | CN1CCC(CN2CCN(c3nc(CNC(=O)[C@@H]4CCCN4S(=O)(=O)c4ccc(F)cc4)cc(-c4ccc(C(F)(F)F)cc4)n3)CC2)CC1 [Example 20, 1-(4-Fluoro-benzenesulfonyl)-pyrrolidine-2S-carboxylic acid [2-[4-(1-methyl-piperidin-4-ylmethyl)-piperazin-1-yl]-6-(4-trifluoromethyl-phenyl)-pyrimidin-4-ylmethyl]-amide]
24 | O=C(NCc1cc(-c2ccc(C(F)(F)F)cc2)nc(N2CCN(Cc3ccncc3)CC2)n1)[C@@H]1CCCN1S(=O)(=O)c1ccc(F)cc1 [Example 21, 1-(4-Fluoro-benzenesulfonyl)-pyrrolidine-2S-carboxylic acid [2-(4-pyridin-4-ylmethyl-piperazin-1-yl)-6-(4-trifluoromethyl-phenyl)-pyrimidin-4-ylmethyl]-amide]
130 | O=C(NCc1cc(-c2ccc(C(F)(F)F)cc2)nc(N2CCN(Cc3ccccn3)CC2)n1)[C@@H]1CCCN1S(=O)(=O)c1ccc(F)cc1 [Example 22, 1-(4-Fluoro-benzenesulfonyl)-pyrrolidine-2S-carboxylic acid [2-(4-pyridin-2-ylmethyl-piperazin-1-yl)-6-(4-trifluoromethyl-phenyl)-pyrimidin-4-ylmethyl]-amide]
4420 | O=C(NCc1cc(-c2ccc(C(F)(F)F)cc2)nc(N2CCNCC2)n1)[C@@H]1CCCN1S(=O)(=O)c1ccc(F)cc1 [Example 23, 1-(4-Fluoro-benzenesulfonyl)-pyrrolidine-2S-carboxylic acid [2-piperazin-1-yl-6-(4-trifluoromethyl-phenyl)-pyrimidin-4-ylmethyl]-amide]
24 | CC(C)CN1CCN(c2nc(CNC(=O)[C@@H]3CCCN3S(=O)(=O)c3ccc(Cl)s3)cc(-c3ccc(C(F)(F)F)cc3)n2)CC1 [Example 24, 1-(5-Chloro-thiophene-2-sulfonyl)-pyrrolidine-2S-carboxylic acid [2-(4-isobutyl-piperazin-1-yl)-6-(4-trifluoromethyl-phenyl)-pyrimidin-4-ylmethyl]-amide]
63 | CC1CCCN1c1nc(CNC(=O)[C@@H]2CCCN2S(=O)(=O)c2ccc(F)cc2)cc(-c2ccc(C(F)(F)F)cc2)n1 (stereo partly drawn) [Example 25, 1-(4-Fluoro-benzenesulfonyl)-pyrrolidine-2S-carboxylic acid [2-(2-methyl-pyrrolidin-1-yl)-6-(4-trifluoromethyl-phenyl)-pyrimidin-4-ylmethyl]-amide]
13 | C[C@H]1CCCN1c1nc(CNC(=O)[C@@H]2CCCN2S(=O)(=O)c2ccc(F)cc2)cc(-c2ccc(C(F)(F)F)cc2)n1 [Example 26, 1-(4-Fluoro-benzenesulfonyl)-pyrrolidine-2S-carboxylic acid [2-(2S-methyl-pyrrolidin-1-yl)-6-(4-trifluoromethyl-phenyl)-pyrimidin-4-ylmethyl]-amide]
16 | C[C@@H]1CCCN1c1nc(CNC(=O)[C@@H]2CCCN2S(=O)(=O)c2ccc(F)cc2)cc(-c2ccc(C(F)(F)F)cc2)n1 [Example 27, 1-(4-Fluoro-benzenesulfonyl)-pyrrolidine-2S-carboxylic acid [2-(2R-methyl-pyrrolidin-1-yl)-6-(4-trifluoromethyl-phenyl)-pyrimidin-4-ylmethyl]-amide]
